How the values were obtained:
Type in all cases: cell-based
E-selectin on human LECs = assay: Immunohistochemical expression of E-selectin on cultured human LECs
Procedure: Using an indirect immunohistochemical technique, the inventors examined the effects of the supernatants of culture medium of two kinds of carcinoma cells, MDA-MB-231 and MCF-7, on the expression of adhesion molecules such as E-selectin, P-selectin, vascular cell adhesion molecule (VCAM)-1, and intercellular adhesion molecule (ICAM)-1 on the human LECs. The carcinoma cells were plated in DMEM/F12 with 10% FBS, which was replaced the following day with DMEM/F12 with 3% FBS, and then collected after overnight culture. The collected solution was centrifuged at 2,000 rpm for 5 min. at 4° C. To examine the effects of the supernatants on the expression of the adhesion molecules on the human LECs, 1 mL of each collected solution was added to starvation culture medium, EBM-2 with 3% FBS of the human LECs, and then stimulated for 48 hrs. on the cells. In some experiments, the supernatant solutions at different concentrations (1/100 or 1/10,000 dilution) were constructed with appropriate volumes of DMEM/F12 with 3% FBS.
Indirect immunohistochemical studies were performed on the cultured LECs seeded or glass slides coated with type I collagen, and then the cells were fixed with 3.3% formalin in phosphate-buffered saline solution (PBS), for 20 min. at room temperature. The cells were washed three times with PBS, and then incubated overnight at 4° C. with primary polyclonal human antisera to E-selectin/CD62E (dilution 10 μg/mL, available from R&D Systems, US), P-selectin/CD62P (dilution 10 μg/mL, available from R&D Systems, US), VCAM-1/CD106 (dilution 10 μg/mL, available from R&D Systems, US), and ICAM-1/CD54 (dilution 10 μg/mL, available from R&D Systems, US).
Before primary staining, the cultured cells were permeabilized with 0.1% TRITON-X. After washing three times in PBS, the cells were incubated for 1 hr. at room temperature with 1:100 diluted ALEXA FLUOR 488 donkey anti-mouse IgG (available from Invitrogen, US). The nuclei of cultured cells were counter-stained and mounted with PROLONG GOLD antifade reagent with 4′-6-diamidine-2-phenylindole (DAPI) (available from Molecular Probes, US), examined by a fluorescent microscope (Leica, Switzerland), and photographed.
Immunohistochemistry was performed on the cultured human LECs or the fresh-frozen SLNs isolated from the breast cancer patients. In brief, the cultured LECs were fixed with 10% formalin in the phosphate-buffered saline solution (PBS) at room temperature. The cells were incubated for 4 hrs. at room temperature with primary polyclonal human antisera platelet-endothelial cell adhesion molecule (PECAM)-1 (dilution 1:100, available from BD Biosciences, US), lymphatic vessel endothelial hyaluronan receptor (LYVE)-1 (dilution 1:50, available from RELIATech, Germany), PROX-1 (dilution 1:50, available from AngioBio, US), podoplanin (dilution 1:50, available from AngioBio, US), vascular endothelium growth factor receptor 3 (VEGF R3) (dilution 1:50, available from Santa Cruz, US), E-selectin/CD62E (dilution 1:50, available from R&D systems, US), P-selectin/CD62P (dilution 1:50, available from R&D systems, US), vascular cell adhesion molecule (VCAM)-1/CD106 (dilution 1:50, available from R&D systems, US), and intercellular adhesion molecule (ICAM)-1/CD54 (dilution 1:50, available from R&D systems, US). Before the staining, permeabilization of the cultured cells with 0.1% TRITON-X was performed. Then, the cells were stained using the following antibodies: ALEXA FLUOR 488 chicken anti-rabbit IgG or ALEXA FLUOR 488 donkey anti-mouse IgG (available from Invitrogen, US). The nuclei of the cultured cells were counter-stained and mounted with ProLong Gold antifade reagent with 4′-6-diamidine-2-phenylindole (DAPI) (available from Molecular Probes, US). The cultured cells were examined by a fluorescent microscope (available from Leica, Germany) and photographed. […]

[1] = system: ICAM-1 mRNA in human LECs; assay: Quantitative RT-PCR of ICAM-1 mRNA in human LECs
Procedure: The 0 hr., 1 hr., 4 hrs. and 18 hrs. expressions of ICAM-1 mRNA were evaluated by quantitative reverse transcription polymerase chain reaction (RT-PCR) for ICAM-1 cDNA. The total RNA was extracted from the cultured human LECs using ISOGEN reagent (available from Nippon Gene Co., Ltd., Japan) according to the manufacturer's instructions. The concentration of each RNA was calculated using 260 nm absorbance with a spectrophotometer. The extracted RNA was reverse-transcribed with M-MLV reverse transcriptase (available from Ambion Inc., US). For RT-PCR analysis, each superscript first-strand synthesis kit (available from Invitrogen Corporation, US) was used with 1.0 μg of the total RNA. Forward and reverse primers of ICAM-1 and cyclophilin A were used for each specific probe, respectively as follows; ICAM-1 (available from TAKARA BIO INC., Japan), and cyclophilin A:
The cDNA was diluted 5-fold prior to PCR amplification. Quantitative RT-PCR was performed using a LIGHT CYCLER rapid thermal cycler system (available from Roche Diagnostics Limited, UK). Reactions were performed in a 20 μL volume with 0.5 μM primers, TAQ DNA POLYMERASE, and the buffer was included in the SYBR PREMIX EX TAQ (available from TAKARA BIO INC., Japan; SYBR is a registered trademark). The PCR protocol included 10 secs. of denaturation step followed by 45 cycles of 95° C. denaturation for 5 secs. and 60° C. annealing for 20 secs. The fluorescent product was detected at the end of the 72° C. extension period. Negative controls included PCR reactions with cDNA omitted. To confirm amplification specificity, PCR products from each primer pair were subjected to melting curve analysis. Quantification data was analyzed with LIGHT CYCLER analysis software. The results are presented as normalized ratio of the expression of ICAM-1 mRNA to cyclophilin A.

ICAM-1 on human LECs = assay: Immunohistochemical expression of ICAM-1 on cultured human LECs
[2] = 4 hrs-stimulation of 10 ng/mL CCL2
[3] = 18 hrs.-stimulation with 10 ng/mL chemokine

In the case of CCL2: chemokine CCL2, the “immunoreaction of anti-E-selectin” value (E-selectin on human LECs; 10 ng/mL CCL2, stimulation time increased to 18 hrs. and 48 hrs.) is reported as “markedly decreased”, the “staining with E-selectin antiserum on LECs” value (E-selectin on human LECs; [2]) is reported as “Slight staining” and the “expression of E-selectin on human LECs” value (E-selectin on human LECs; [3]) is reported as “Little or no expression”. The “expression of ICAM-1 mRNA (ratio to cyclophilin A)” value ([1]; 10 ng/mL CCL2, 1 hr. after the stimulation) was “significantly increased”, the “expression of ICAM-1 mRNA (ratio to cyclophilin A)” value ([1]; 10 ng/mL CCL2, around 4 hrs. after the stimulation) was “maximal level” and the “expression of ICAM-1 mRNA (ratio to cyclophilin A)” value ([1]; 10 ng/mL CCL2, up to 18 hrs. after the stimulation) was “increased slightly”. For the same substance, the “intensity of the immunoreactivity for ICAM-1” value (ICAM-1 on human LECs; 10 ng/mL CCL2, stimulation time of 18 hrs. only) was “significantly increased”, the “contrast-density of ICAM-1 staining (mean density/pixel)” value (ICAM-1 on human LECs; 10 ng/mL CCL2 vs negative control, p<0.01, n=5) was “increases significantly” and the “expression of ICAM-1 on human LECs” value (ICAM-1 on human LECs; [2]) was “marked expression”. For the same substance, the “expression of ICAM-1 on human LECs” value (ICAM-1 on human LECs; [3]) was “marked expression”, the “expression of ICAM-1 on human LECs” value (ICAM-1 on human LECs; 18 hrs.-stimulation, 10 pg/mL CCL2) was “slight, but significant, expression” and the “expression of ICAM-1 on human LECs” value (ICAM-1 on human LECs; 18 hrs.-stimulation, 1 ng/mL or 10 ng/mL of CCL2) was “marked expression”.

— patent publication US20140199714A1, “METHOD FOR DETECTING CANCER CELLS METASTASIZING INTO SENTINEL LYMPH NODE” (SHINSHU UNIVERSITY, priority 2008, published 2014)
